Patent publication US8871796B2, “Diaryl ether derivatives as notch sparing gamma secretase inhibitors” (Merck Sharp & Dohme Corp., priority 2009, dated 2014)
Like-named read-outs stand apart in the source and are kept apart here.

Experiment: APP processing: AlphaLisa assay of secreted Aβ40 and Aβ42 from SP4CT cells
Type: cell-based
Conditions: Homo sapiens, SH-SY5Y cells expressing amyloid β protein (SP4CT cells)
Summary of the method: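 Media from compound-treated SP4CT cells (SH-SY5Y expressing amyloid β protein) was assayed by AlphaLisa. Donor beads carried biotinylated 4G8 anti-Aβ antibody; acceptor beads carried G210 (Aβ40) or 12F4 (Aβ42) in separate plates, with luminescence proportional to peptide abundance.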

[1] = read-out: IC50, inhibition of production of Aβ40 peptide
[2] = read-out: IC50, inhibition of production of Aβ42 peptide

Row | IC50 [1] [nM] | IC50 [2] [nM] | Compound
1 | < 200 | < 200 | CCn1nc(-c2cccc(C(C)(C)NS(=O)(=O)CC(F)(F)F)c2)c(I)c1Oc1ccc(C(F)(F)F)cc1 [Example 116, N-[2-(3-{1-ethyl-4-iodo-5-[4-(trifluoromethyl)phenoxy]-1H-pyrazol-3-yl}phenyl)propan-2-yl]-2,2,2-trifluoroethanesulfonamide]
2 | < 200 | < 200 | CCn1nc(-c2cccc(C(C)(C)NS(=O)(=O)CC(F)(F)F)c2)cc1Oc1ccc(CNc2ccc(OC)cc2)cc1 [Example 82]
3 | < 200 | < 200 | CCn1nc(-c2cccc(C(C)(C)NS(=O)(=O)CC(F)(F)F)c2)cc1Oc1ccc(C=O)cc1 [Example 61, N-(1-{3-[1-ethyl-5-(4-formylphenoxy)-1H-pyrazol-3-yl]phenyl}-1-methylethyl)-2,2,2-trifluoroethanesulfonamide]
4 | < 200 | < 200 | CCn1nc(-c2cccc(C3(NS(=O)(=O)CC)CC3)c2)cc1Oc1ccc(C(F)(F)F)cc1 [Example 38, N-[1-(3-{1-ethyl-5-[4-(trifluoromethyl)phenoxy]-1H-pyrazol-3-yl}phenyl)cyclopropyl] ethanesulfonamide]
5 | < 200 | < 200 | CCn1nc(-c2cccc(C3(NS(=O)(=O)NC4CCC4)CC3)c2)cc1Oc1ccc(C(F)(F)F)cn1 [Example 43, N-cyclobutyl-N′-{1-[3-(1-ethyl-5-{[5-(trifluoromethyl)pyridin-2-yl]oxy}-1H-pyrazol-3-yl)phenyl]cyclopropyl} sulfamide]
6 | < 200 | < 200 | Cc1cc(Cn2nc(-c3cccc(C4(NS(=O)(=O)CC(F)(F)F)COC4)c3)cc2Oc2ccc(C(F)(F)F)cc2)on1 [Example 137, N-(3-{3-[5-(4-trifluoromethylphenoxy)-1-(5-methyl-1,2-isoxazol-3-ylmethyl)-1H-pyrazol-3-yl]phenyl}oxetan-3-yl)-2,2,2-trifluoroethanesulfonamide]
7 | < 200 | < 200 | CCC(O)c1ccc(Oc2cc(-c3cccc(C(C)(C)NS(=O)(=O)CC(F)(F)F)c3)nn2CC)cc1 (centres unmarked) [Example 67, N-[1-(3-{1-ethyl-5-[4-(1-hydroxypropyl)phenoxy]-1H-pyrazol-3-yl}phenyl)-1-methylethyl]-2,2,2-trifluoroethanesulfonamide]
8 | < 200 | < 200 | CCn1nc(-c2cccc(C(C)(C)NS(=O)(=O)CC(F)(F)F)c2)cc1Oc1ccc(CN2CCC3(CC2)OCCO3)cc1 [Example 87, N-[1-(3-{5-[4-(1,4-dioxa-8-azaspiro[4.5]dec-8-ylmethyl)phenoxy]-1-ethyl-1H-pyrazol-3-yl}phenyl)-1-methylethyl]-2,2,2-trifluoroethanesulfonamide]
9 | < 200 | < 200 | O=S(=O)(CC(F)(F)F)NC1(c2cccc(-c3cc(Oc4ccc(C(F)(F)F)cc4)nn3Cc3cocn3)c2)COC1 [Example 135, N-(3-{3-[3-(4-trifluoromethylphenoxy)-1-(1,3-oxazol-4-ylmethyl)-1H-pyrazol-5-yl]phenyl}oxetan-3-yl)-2,2,2-trifluoroethanesulfonamide]
10 | < 200 | < 200 | CCn1nc(-c2cccc(C(C)(C)NS(=O)(=O)CC3CCC3)c2)cc1Oc1ccc(C(F)(F)F)cc1 [Example 2, 1-cyclobutyl-N-[1-(3-{1-ethyl-5-[4-(trifluoromethyl)phenoxy]-1H-pyrazol-3-yl}phenyl)-1-methylethyl]methanesulfonamide]
11 | < 200 | < 200 | CCn1nc(-c2cccc(C(C)(C)NS(=O)(=O)NCC(F)(F)F)c2)cc1Oc1ccc(C(F)(F)F)cc1 [Example 4, N-[1-(3-{1-ethyl-5-[4-(trifluoromethyl)phenoxy]-1H-pyrazol-3-yl}phenyl)-1-methylethyl]-N′-(2,2,2-trifluoroethyl)sulfamide]
12 | < 200 | < 200 | CCn1nc(-c2cccc(C(C)(C)NS(=O)(=O)CC(F)(F)F)c2)cc1Oc1ccc(C(C)O)cc1 (centres unmarked) [Example 65, N-[1-(3-{1-ethyl-5-[4-(1-hydroxyethyl)phenoxy]-1H-pyrazol-3-yl}phenyl)-1-methylethyl]-2,2,2-trifluoroethanesulfonamide]

Second part, the molecule before the results:

Row | Compound | IC50 [1] [nM] | IC50 [2] [nM]
13 | CCn1nc(Oc2ccc(F)cc2)cc1-c1cccc(C(C)(C)NS(=O)(=O)NC2CCC2)c1 [Example 54, N-cyclobutyl-N′-(1-{3-[1-ethyl-3-(4-fluorophenoxy)-1H-pyrazol-5-yl]phenyl}-1-methylethyl)sulfamide] | < 200 | < 200
14 | CCn1nc(Oc2ccc(C(F)(F)F)cc2)cc1-c1cccc(C2(NS(=O)(=O)NCCC(F)(F)F)COC2)c1 [Example 102] | < 200 | < 200
15 | CCn1nc(-c2cccc(C(C)(C)NS(=O)(=O)CC(F)(F)F)c2)cc1Oc1ccc(C(F)C(F)(F)F)cc1 (centres unmarked) [Example 72, N-[1-(3-{1-ethyl-5-[4-(1,2,2,2-tetrafluoroethyl)phenoxy]-1H-pyrazol-3-yl}phenyl)-1-methylethyl]-2,2,2-trifluoroethanesulfonamide] | < 200 | < 200
16 | CCn1nc(Oc2ccc(Cl)nc2)cc1-c1cccc(C(C)(C)NS(=O)(=O)CC(F)(F)F)c1 [Example 22, N-[1-(3-{3-[(6-chloropyridin-3-yl)oxy]-1-ethyl-1H-pyrazol-5-yl]phenyl)-1-methylethyl]-2,2,2-trifluoroethanesulfonamide] | < 200 | < 200
17 | CCn1nc(-c2cccc(C(C)(C)NS(=O)(=O)CC(F)(F)F)c2)cc1Oc1ccc(C(C)C)cc1 [Example 58, N-(1-{3-[1-ethyl-5-(4-isopropylphenoxy)-1H-pyrazol-3-yl]phenyl}-1-methylethyl)-2,2,2-trifluoroethanesulfonamide] | < 200 | < 200
18 | CCn1nc(-c2cccc(C(C)(C)NS(=O)(=O)CC(F)(F)F)c2)cc1Oc1ccc(CNCc2cccnc2)cc1 [Example 94, N-(1-{3-[1-ethyl-5-(4-{[(pyridin-3-ylmethyl)amino]methyl}phenoxy)-1H-pyrazol-3-yl]phenyl}-1-methylethyl)-2,2,2-trifluoroethanesulfonamide] | < 200 | < 200
19 | O=S(=O)(CC(F)(F)F)NC1(c2cccc(-c3cc(Oc4ccc(C(F)(F)F)cc4)n(CC(F)(F)F)n3)c2)CC1 [Example 107, 2,2,2-trifluoro-N-[1-(3-{1-(2,2,2-trifluoroethyl)-5-[4-(trifluoromethyl)phenoxy]-1H-pyrazol-3-yl}phenyl)cyclopropyl]ethanesulfonamide] | < 200 | < 200
20 | CCn1nc(Oc2ccc(C(F)(F)F)cc2)cc1-c1cccc(C2(NS(=O)(=O)NC)CC2)c1 [Example 34, N-[1-(3-{1-ethyl-3-[4-(trifluoromethyl)phenoxy]-1H-pyrazol-5-yl}phenyl)cyclopropyl]-N′-methylsulfamide] | < 200 | < 200
21 | CCn1nc(-c2cccc(C3(NS(=O)(=O)CC(F)(F)F)CC3)n2)cc1Oc1ccc(C(F)(F)F)cc1 [Example 51, N-[1-(6-{1-ethyl-5-[4-(trifluoromethyl)phenoxy]-1H-pyrazol-3-yl}pyridin-2-yl)cyclopropyl]-2,2,2-trifluoroethanesulfonamide] | < 200 | < 200
22 | CCn1nc(Oc2ccc(C(F)(F)F)cc2)cc1-c1cccc(C(C)(C)NS(=O)(=O)CC(F)(F)F)c1 [Example 20, N-[1-(3-{1-ethyl-3-[4-(trifluoromethyl)phenoxy]-1H-pyrazol-5-yl}phenyl)-1-methylethyl]-2,2,2-trifluoroethanesulfonamide] | < 200 | < 200
23 | CCn1nc(Oc2ccc(C(F)(F)F)cc2)cc1-c1cccc(C2(NS(=O)(=O)NCC(F)(F)F)COC2)c1 [Example 101, N-[3-(3-{1-ethyl-3-[4-(trifluoromethyl)phenoxy]-1H-pyrazol-5-yl}phenyl)oxetan-3-yl]-N′-(2,2,2-trifluoroethyl)sulfamide] | < 200 | < 200
24 | CN(C)C(=O)Cn1nc(-c2cccc(C3(NS(=O)(=O)CC(F)(F)F)COC3)c2)cc1Oc1ccc(C(F)(F)F)cc1 [Example 131, 2-[5-(4-trifluoromethylphenoxy)-3-(3-{3-[(2,2,2-trifluoroethylsulfonyl)amino]oxetan-3-yl}phenyl)-1H-pyrazol-1-yl]-N,N-dimethylacetamide] | < 200 | < 200
25 | CCn1nc(-c2cccc(C3(NS(=O)(=O)CC(F)(F)F)CC3)c2)c(Cl)c1Oc1ccc(C(F)(F)F)cc1 [Example 111, N-[1-(3-{4-chloro-1-ethyl-5-[4-(trifluoromethyl)phenoxy]-1H-pyrazol-3-yl}phenyl)cyclopropyl]-2,2,2-trifluoroethanesulfonamide] | < 200 | < 200
26 | CCn1nc(-c2cccc(C3(NS(=O)(=O)CC(F)(F)F)CC3)c2)cc1Oc1ccc(C(F)(F)F)nc1 [Example 40, N-{1-[3-(1-ethyl-5-{[6-(trifluoromethyl)pyridin-3-yl]oxy}-1H-pyrazol-3-yl)phenyl]cyclopropyl}-2,2,2-trifluoroethanesulfonamide] | < 200 | < 200
27 | CCn1nc(-c2cccc(C(C)(C)NS(=O)(=O)CC(F)(F)F)c2)cc1Oc1ccc(C(=O)C(F)(F)F)cc1 [Example 73, N-[1-(3-{1-ethyl-5-[4-(trifluoroacetyl)phenoxy]-1H-pyrazol-3-yl}phenyl)-1-methylethyl]-2,2,2-trifluoroethanesulfonamide] | < 200 | < 200
28 | CCn1nc(-c2cccc(C3(NS(=O)(=O)NCC(F)(F)F)CC3)c2)cc1Oc1ccc(C(F)(F)F)cn1 [Example 41, N-{1-[3-(1-ethyl-5-{[5-(trifluoromethyl)pyridin-2-yl]oxy}-1H-pyrazol-3-yl)phenyl]cyclopropyl}-N′-(2,2,2-trifluoroethyl)sulfamide] | < 200 | < 200
